Assay [1] deals with Staphylococcus aureus. The experiment in a line: Inhibition of Staphylococcus aureus MurA expressed in Escherichia coli BL21(DE3) assessed as Vmax for DP-G1cNAc to EU- DP-G1cNAc conversion at 50 uM preincubated for 15 mins by HPLC method (reference value: 0.235 +/- 0.049 uM/min).
Assay [2] relates to Staphylococcus aureus. The experiment in a line: Synergistic antibacterial activity against Staphylococcus aureus UAMS-1 AlbR D resistant mutant assessed as fractional inhibitory concentration index in presence of fosfomycin by broth microdilution assay. The format is functional.
Assay [3] relates to Staphylococcus aureus. The experiment in a line: Inhibition of Staphylococcus aureus MurA expressed in Escherichia coli BL21(DE3) assessed as Vmax for DP-G1cNAc to EU- DP-G1cNAc conversion at 100 uM preincubated for 15 mins by HPLC method (reference value: 0.235 +/- 0.049 uM/min).
The subject of assay [4] is Staphylococcus aureus. The experiment in a line: Antibacterial activity against Staphylococcus aureus USA300 Tn mutant assessed as growth inhibition incubated at 16 to 24 hrs by CLSI method. Particulars: time 16-24 hrs. Type of assay: functional.
The subject of assay [5] is Staphylococcus aureus. The experiment in a line: Antibacterial activity against Staphylococcus aureus UAMS-1 assessed as growth inhibition incubated at 16 to 24 hrs by CLSI method. The format is functional. Particulars: time 16-24 hrs.
Assay [6] concerns Staphylococcus aureus. The experiment in a line: Antibacterial activity against Staphylococcus aureus NE1416 Tn mutant assessed as growth inhibition incubated at 16 to 24 hrs by CLSI method. The format is functional. Particulars: time 16-24 hrs.
Assay [7] relates to Staphylococcus aureus. The experiment in a line: Synergistic antibacterial activity against Staphylococcus aureus UAMS-1 AlbR A resistant mutant assessed as fractional inhibitory concentration index in presence of fosfomycin by broth microdilution assay. Type of assay: functional.
Assay [8] relates to Staphylococcus aureus. The experiment in a line: Antibacterial activity against Staphylococcus aureus UAMS-1 AlbR A resistant mutant assessed as growth inhibition incubated at 16 to 24 hrs by CLSI method. The format is functional. As to conditions: time 16-24 hrs.
Assay [9] relates to Staphylococcus aureus. The experiment in a line: Inhibition of Staphylococcus aureus MurA expressed in Escherichia coli BL21(DE3) assessed as Kcat for DP-G1cNAc to EU- DP-G1cNAc conversion at 100 uM preincubated for 15 mins by HPLC method (reference value: 0.471 +/- 0.994 /min).
The test system of assay [10] is Staphylococcus aureus. The experiment in a line: Synergistic antibacterial activity against Staphylococcus aureus UAMS-1 AlbR C resistant mutant assessed as fractional inhibitory concentration index in presence of fosfomycin by broth microdilution assay. Type of assay: functional.
Assay [11] concerns Staphylococcus aureus. The experiment in a line: Synergistic antibacterial activity against Staphylococcus aureus UAMS-1 AlbR B resistant mutant assessed as fractional inhibitory concentration index in presence of fosfomycin by broth microdilution assay. Type of assay: functional.
Assay [12] relates to Staphylococcus aureus. The experiment in a line: Antibacterial activity against Staphylococcus aureus UAMS-1 AlbR D resistant mutant assessed as growth inhibition incubated at 16 to 24 hrs by CLSI method. Particulars: time 16-24 hrs. Type of assay: functional.
In assay [13] the test system is Staphylococcus aureus. The experiment in a line: Inhibition of Staphylococcus aureus MurA expressed in Escherichia coli BL21(DE3) assessed as Kcat for DP-G1cNAc to EU- DP-G1cNAc conversion at 50 uM preincubated for 15 mins by HPLC method (reference value: 0.471 +/- 0.994 /min).
Assay [14] concerns Staphylococcus aureus. The experiment in a line: Antibacterial activity against Staphylococcus aureus NE939 Tn mutant assessed as growth inhibition incubated at 16 to 24 hrs by CLSI method. The format is functional. As to conditions: time 16-24 hrs.
In assay [15] the test system is Staphylococcus aureus. The experiment in a line: Inhibition of Staphylococcus aureus MurA expressed in Escherichia coli BL21(DE3) assessed as Kcat for DP-G1cNAc to EU- DP-G1cNAc conversion at 150 uM preincubated for 15 mins by HPLC method (reference value: 0.471 +/- 0.994 /min).
Assay [16] concerns Staphylococcus aureus. The experiment in a line: Antibacterial activity against Staphylococcus aureus UAMS-1 AlbR C resistant mutant assessed as growth inhibition incubated at 16 to 24 hrs by CLSI method. The format is functional. As to conditions: time 16-24 hrs.
The nature of assay [17]: Inhibition of Staphylococcus aureus MurA expressed in Escherichia coli BL21(DE3) assessed as using DP-G1cNAc as substrate preincubated for 15 mins by HPLC method.
Assay [18] concerns Staphylococcus aureus. The experiment in a line: Inhibition of Staphylococcus aureus MurA expressed in Escherichia coli BL21(DE3) assessed as Vmax for DP-G1cNAc to EU- DP-G1cNAc conversion at 150 uM preincubated for 15 mins by HPLC method (reference value: 0.235 +/- 0.049 uM/min).
Assay [19] concerns Staphylococcus aureus. The experiment in a line: Synergistic antibacterial activity against Staphylococcus aureus UAMS-1 assessed as fractional inhibitory concentration index in presence of fosfomycin by broth microdilution assay. The format is functional.
Assay [20] concerns the target Bacterial 70S ribosome. The experiment in a line: Binding affinity to Staphylococcus aureus 70S ribosome assessed as dissociation constant by measuring reduction in BODIPY-Erythromycin A binding incubated for 1.5 hr by fluorescence polarization assay. Type of assay: subcellular.
Assay [21] deals with Staphylococcus aureus. The experiment in a line: Antibacterial activity against Staphylococcus aureus UAMS-1 AlbR B resistant mutant assessed as growth inhibition incubated at 16 to 24 hrs by CLSI method. Particulars: time 16-24 hrs. Type of assay: functional.
Assay [22] addresses Bacterial 70S ribosome. The experiment in a line: Binding affinity to Staphylococcus aureus 70S ribosome assessed as reduction in BODIPY-Erythromycin A binding incubated for 1.5 hr by fluorescence polarization assay. The format is subcellular.

Converted amounts (≈) assume the structure as drawn.

For the compound `CO[C@H]1/C=C/[C@@](C)(O)/C=C/C(=O)O[C@H](C)[C@@H](C)CC/C=C/1C`, the Vmax was 0.157 µM/min in the assay with Staphylococcus aureus [1], 0.0722 µM/min in the assay on Staphylococcus aureus [3] and 0.0476 µM/min with Staphylococcus aureus [18]. For the same compound, the “fractional inhibitory concentration index (FICI)” value in the assay on Staphylococcus aureus [2] is 0.5; in the assay with Staphylococcus aureus [7], 0.5; in the assay on Staphylococcus aureus [10], 0.25; in the assay on Staphylococcus aureus [11], 0.25; in the assay on Staphylococcus aureus [19], 1.004. The MIC in the assay on Staphylococcus aureus [4] was 1 µg/mL (≈ 3.24 µM); in the assay with Staphylococcus aureus [5], 1 µg/mL (≈ 3.24 µM); in the assay on Staphylococcus aureus [6], greater than 256 µg/mL; with Staphylococcus aureus [8] it was 512 µg/mL (≈ 1660 µM); with Staphylococcus aureus [12], greater than 1020 µg/mL; with Staphylococcus aureus [14], 1 µg/mL (≈ 3.24 µM). Besides, the MIC was greater than 1020 µg/mL with Staphylococcus aureus [16] and 512 µg/mL (≈ 1660 µM) in the assay on Staphylococcus aureus [21]. The catalytic constant (kcat) in the assay with Staphylococcus aureus [9] was 0.0024 s⁻¹; with Staphylococcus aureus [13], 0.00523 s⁻¹; in the assay on Staphylococcus aureus [15], 0.00159 s⁻¹. In addition, the inhibition constant Ki in assay [17] was found to be 23600 nM. The Kd at Bacterial 70S ribosome [20] is 2.4 nM.
For `CC[C@H]1OC(=O)[C@@](C)(F)C(=O)[C@H](C)[C@@H](O[C@@H]2O[C@H](C)C[C@H](N(C)C)[C@H]2O)[C@](C)(OC)C[C@@H](C)C(=O)[C@H](C)[C@H]2N(CCCCn3cc(-c4cccc(N)c4)nn3)C(=O)O[C@]12C` [SOLITHROMYCIN], the inhibitory constant (Ki) on Bacterial 70S ribosome [22] came out at 60.3 nM.
Take `C[C@@H]1O[C@@H]1P(=O)(O)O` [FOSFOMYCIN]: the MIC with Staphylococcus aureus [4] worked out at 32 µg/mL (≈ 232 µM); in the assay with Staphylococcus aureus [5] it was 16 µg/mL (≈ 116 µM); in the assay with Staphylococcus aureus [6] it was 16 µg/mL (≈ 116 µM); in the assay with Staphylococcus aureus [8], 16 µg/mL (≈ 116 µM); in the assay with Staphylococcus aureus [12] it was 16 µg/mL (≈ 116 µM); in the assay on Staphylococcus aureus [14], 4 µg/mL (≈ 29 µM). The minimum inhibitory concentration (MIC) in the assay with Staphylococcus aureus [16] and in the assay on Staphylococcus aureus [21] was 16 µg/mL (≈ 116 µM) throughout.

These data come from ChEMBL document CHEMBL4680355, “Staphylococcus aureus resistance to albocycline can be achieved by mutations that alter cellular NAD/PH pools” (Bioorg Med Chem, 2021).
